{
  "source": "patent US10041953B2",
  "about": "“Mass spectrometric determination of drug resistance” (priority 2013, dated 2018)",
  "type_in_all_cases": "cell-based",
  "key": {"[1]": {"tested_on": "salmonella wild type (13471)", "assay": "MIC for ciprofloxacin, wild type (13471)", "settings": "wild type gyrase"}, "Salmonella strain 17109": {"tested_on": "Salmonella strain 17109", "assay": "MIC for ciprofloxacin, Salmonella strain 17109", "settings": "Salmonella strain 17109, one gyrase amino acid substitution"}, "Salmonella strain 6836": {"tested_on": "Salmonella strain 6836", "assay": "MIC for ciprofloxacin, Salmonella strain 6836", "settings": "Salmonella strain 6836, double gyrase mutation"}, "Salmonella strain 19222": {"tested_on": "Salmonella strain 19222", "assay": "MIC for ciprofloxacin, Salmonella strain 19222", "settings": "Salmonella strain 19222, one gyrase amino acid substitution"}},
  "data": [
    {"smiles": "O=C(O)c1cn(C2CC2)c2cc(N3CCNCC3)c(F)cc2c1=O", "note": "[ciprofloxacin]", "values": [
      {"measurement": "MIC", "setting": "[1]", "value": 0.03, "unit": "µg/mL"},
      {"measurement": "MIC", "setting": "Salmonella strain 17109", "value": 1, "unit": "µg/mL"},
      {"measurement": "MIC", "setting": "Salmonella strain 6836", "value": 32, "unit": "µg/mL"},
      {"measurement": "MIC", "setting": "Salmonella strain 19222", "value": 1, "unit": "µg/mL"}
    ]}
  ]
}
